# Results reported in patent US20140331365A1 (priority 2008, published 2014).
# Entries after “also recorded” stand apart in the source; their conditions may differ.
# Experiments:
# soybean root cells = type: cell-based; conditions: for stimulation of Avr1b(N)-GFP uptake into soybean roots: after 9 hr
# Avr1b(N)-GFP = type: binding, Phytophthora sojae
# AvrL567(N)-GFP = type: binding, Melampsora lini
# soybean leaf cells = type: cell-based
compound,measurement,setting,value
"O=P(O)(O)O[C@@H]1C(O)[C@H](OP(=O)(O)O)[C@@H](O)C(O)[C@H]1O (stereo partly drawn) [1,3-IP2, Inositol 1,3 diphosphate]",inhibition of entry of Avr2-GFP into soybean root cells,soybean root cells,inhibited
same,inhibition of entry of AvrLm6-GFP into soybean root cells,soybean root cells,inhibited
"O=P(O)(O)OC1[C@@H](O)[C@H](O)C(OP(=O)(O)O)[C@H](O)[C@@H]1O (stereo partly drawn) [IP2, Inositol-1,4-diphosphate]",inhibition of entry of Avr2-GFP into soybean root cells,soybean root cells,inhibited
same,inhibition of entry of AvrLm6-GFP into soybean root cells,soybean root cells,inhibited
same,inhibition of uptake/entry of Arg9-GFP into soybean root cells,soybean root cells,completely unaffected
same,inhibition of uptake/entry of Avr1b(N)-GFP into soybean root cells,soybean root cells,almost completely blocked
same,inhibition of uptake/entry of AvrL567(N)-GFP into soybean root cells,soybean root cells,almost completely blocked
same,inhibition of binding of Avr1b(N)-GFP to PI-4-P-containing liposomes,Avr1b(N)-GFP,inhibited binding
same,inhibition of binding of AvrL567(N)-GFP to PI-4-P-containing liposomes,AvrL567(N)-GFP,completely block binding
CCCCCCCC(=O)OC[C@H](COP(=O)(O)OC1[C@H](O)[C@H](O)C(OP(=O)(O)O)[C@H](O)[C@H]1O)OC(=O)CCCCCCC (stereo partly drawn) [di-octanoyl-PI-4-P],promotion of uptake of Avr1b(N)-GFP and AvrL567(N)-GFP proteins containing alanine substitutions in the RXLR and dEER motifs,soybean root cells,did not promote the uptake
same,stimulation of Arg9-GFP uptake in soybean root cells,soybean root cells,does not stimulate uptake
same,stimulation of AvrL567(N)-GFP uptake into soybean roots,soybean root cells,strongly stimulated
same,stimulation of Avr1b(N)-GFP uptake into soybean roots,soybean root cells,strong stimulation; also recorded: stimulated
AAAA,ablation,soybean leaf cells,0
Arg9,Avr1b function / cell re-entry in particle bombardment assay (reduction of GUS-positive blue spots with Rps1b),soybean leaf cells,could functionally replace the RXLR2 motif
phosphatidyl choline [PC],stimulation of Avr1b(N)-GFP uptake into soybean roots,soybean root cells,did not stimulate uptake
phosphatidyl ethanolamine [PE],stimulation of Avr1b(N)-GFP uptake into soybean roots,soybean root cells,did not stimulate uptake
phosphatidyl inositol [PI],stimulation of Avr1b(N)-GFP uptake into soybean roots,soybean root cells,did not stimulate uptake
